Test results as given in US10047087B2, “Substituted pyrazolo[1,5-A] pyridine as tropomyosin receptor kinase (TrK) inhibitors” (Dr. Reddy's Laboratories Ltd., priority 2011, dated 2018).

Tested on: not listed separately
Test: Metabolic stability using Human Liver Microsomes (HLM)
Assay type: in vitro ADME
Conditions: pooled human liver microsomes, compound 1 μM, 0.3 mg/ml microsomal protein, 1 mM NADPH
Experimental: Stability Protocol: Metabolic Stability Using Rat Liver Microsomes (RLM) and Human Liver Microsomes (HLM).
This assay was performed using pooled male rat liver microsomes (In-house prepared as per SOP), Pooled Human liver microsomes (XENOTECH; Batch No— H0630-1110189)). The 100 μl reaction contains the compounds at 1 μM, 0.3 mg/ml microsomal protein and both the co-factors (1 mM NADPH) in buffer and the mixture was incubated at different time points (0, 15, 30, 45, 60, & 90 minutes). The reaction was stopped by the addition of equal volume of acetonitrile containing internal standard (Telmesartin). The precipitated protein was removed by centrifugation and the supernatant were analyzed LC/MS-MS method. The percent parent compound remaining was quantified by analysis using following formula (% parent compound remaining=(peak area at Time x/peak area at T0)×100. The intrinsic clearance was calculated using the following formula. CLint,app: (0.693/in vitro t½)(incubation volume/mg of microsomal protein)(45 mg microsomal protein/gram of liver)(20^a g of liver/kg body weight) • a: 20 and 45 g of liver/kg of body weight were used for human and rat, respectively (Lu C et al., DMD, 2006). Bio-analysis: It was performed in Multiple Reaction Monitoring mode (negative mode) using Applied Biosystems API 4000 coupled to Agilent Technologies 1100 series HPLC on a reverse phase column (Zorbax Eclipse XDB C18, 50×4.6 mm, 5 μm). Celecoxib was used as internal standard both in in-vitro and in-vivo experiments. Mobile phase used 0.05% […] water and acetonitrile (10:90) with a flow rate of 0.6 ml/minute. The injection volume was kept as 10 μl.

| half-life at 1 μM [h] | SMILES |
| --- | --- |
| > 1.33 | CCN(C)S(=O)(=O)NC(=O)c1cnn2ccc(N3CCCC3c3cc(F)cc4c3OCCCO4)cc12 (single isomer, unassigned) [Example 96, N-(N-ethyl-N-methylsulfamoyl)-5-(2-(8-fluoro-3,4-dihydro-2H-benzo[b][1,4]dioxepin-6-yl)pyrrolidin-1-yl)pyrazolo[1,5-a]pyridine-3-carboxamide] |
| > 1.33 | CC1(S(=O)(=O)NC(=O)c2cnn3ccc(N4CCC[C@@H]4c4cc(F)ccc4F)cc23)CC1 [Example 38, (R)-5-(2-(2,5-difluorophenyl)pyrrolidin-1-yl)-N-((1-methylcyclopropyl)sulfonyl)pyrazolo[1,5-a] pyridine-3-carboxamide] |
| > 1.33 | Cc1ccccc1S(=O)(=O)NC(=O)c1cnn2ccc(N3CCC[C@@H]3c3cc(F)ccc3F)cc12 [Example 39, (R)-5-(2-(2,5-difluorophenyl)pyrrolidin-1-yl)-N-(o-tolylsulfonyl)pyrazolo[1,5-a]pyridine-3-carboxamide] |
| > 1.33 | COc1ccc(F)cc1[C@H]1CCCN1c1ccn2ncc(C(=O)NS(=O)(=O)C(C)(C)C)c2c1 [Example 42, (R)-N-(tert-butylsulfonyl)-5-(2-(5-fluoro-2-methoxyphenyl)pyrrolidin-1-yl)pyrazolo[1,5-a] pyridine-3-carboxamide] |
| > 1.33 | CCN(C)S(=O)(=O)NC(=O)c1cnn2ccc(N3C[C@@H](F)C[C@@H]3c3cccc(F)c3)c(F)c12 [Example 102, N-(N-ethyl-N-methylsulfamoyl)-4-fluoro-5-((2R,4S)-4-fluoro-2-(3-fluorophenyl)pyrrolidin-1-yl)pyrazolo[1,5-a]pyridine-3-carboxamide] |
| > 1.33 | CCN(C)S(=O)(=O)NC(=O)c1cnn2ccc(N3CCC[C@@H]3c3cc(F)cc(O[C@@H]4CCOC4)c3)cc12 [Example 106, N-(N-ethyl-N-methylsulfamoyl)-5-((R)-2-(3-fluoro-5-(((R)-tetrahydrofuran-3-yl)oxy)phenyl)pyrrolidin-1-yl)pyrazolo[1,5-a]pyridine-3-carboxamide] |
| > 1.33 | NS(=O)(=O)NC(=O)c1cnn2ccc(N3C[C@@H](F)C[C@@H]3c3cccc(F)c3)c(F)c12 [Example 107, 4-fluoro-5-((2R,4S)-4-fluoro-2-(3-fluorophenyl)pyrrolidin-1-yl)-N-sulfamoylpyrazolo[1,5-a]pyridine-3-carboxamide] |
| > 1.33 | CC(C)(C)S(=O)(=O)NC(=O)c1cnn2ccc(N3C[C@@H](F)C[C@@H]3c3cccc(F)c3)c(F)c12 [Example 121, N-(tert-butylsulfonyl)-4-fluoro-5-((2R,4S)-4-fluoro-2-(3-fluorophenyl)pyrrolidin-1-yl)pyrazolo[1,5-a]pyridine-3-carboxamide] |

Target: T1, TrkA kinase (Homo sapiens, UniProt P04629)
T1 construct: purchased Upstate, USA
Test: In vitro TrkA inhibitory activity using TR-FRET assay
Assay type: biochemical
Conditions: 5 ng TrkA, 500 μM ATP, both bounds given in nm, read-out: TrkA inhibitory activity in-vitro IC50
Experimental: Determination of In Vitro TrkA Inhibitory Activity Using TR-FRET Assay
Compounds were screened in the TR-FRET assay with TrkA kinase. 5 ng of TrkA [Upstate, USA] kinase was used for assay. The compound was incubated with the kinase for 30 minutes at 20-35° C. After the incubation, substrate mix [40 nM Ultra light poly GT (Perkin Elmer, USA) and 500 μM ATP] was added. The above reaction was stopped by the addition of 40 mM EDTA after 30 minutes. The Eu-labelled antiphospho-tyrosine antibody [Perkin Elmer, USA] was added at 0.5 nM and the fluorescence emission at 615 nm/665 nm [excitation at 340 nm] was measured. The compounds were initially screened at 100 nM, 1 μM and 10 μM concentrations. The potent compounds with >25% inhibition at 1 μM of TrkA were taken for the full dose response studies. The final DMSO concentration in the assay was […]. For IC50 determination, ⅓^rd serial dilution was made from the 20 mM DMSO stock solution. 2 μl of these were transferred to the test wells containing 20 μl reaction mixture [Total reaction volume 22 μl]. The fluorescence was measured in Perkin Elmer Wallac 1420 Multilabel Counter Victor 3. The IC50 was determined by fitting the dose response data to a sigmoidal curve fitting equation using GraphPad Prism software version 5.

T1 sequence (P04629 33-796): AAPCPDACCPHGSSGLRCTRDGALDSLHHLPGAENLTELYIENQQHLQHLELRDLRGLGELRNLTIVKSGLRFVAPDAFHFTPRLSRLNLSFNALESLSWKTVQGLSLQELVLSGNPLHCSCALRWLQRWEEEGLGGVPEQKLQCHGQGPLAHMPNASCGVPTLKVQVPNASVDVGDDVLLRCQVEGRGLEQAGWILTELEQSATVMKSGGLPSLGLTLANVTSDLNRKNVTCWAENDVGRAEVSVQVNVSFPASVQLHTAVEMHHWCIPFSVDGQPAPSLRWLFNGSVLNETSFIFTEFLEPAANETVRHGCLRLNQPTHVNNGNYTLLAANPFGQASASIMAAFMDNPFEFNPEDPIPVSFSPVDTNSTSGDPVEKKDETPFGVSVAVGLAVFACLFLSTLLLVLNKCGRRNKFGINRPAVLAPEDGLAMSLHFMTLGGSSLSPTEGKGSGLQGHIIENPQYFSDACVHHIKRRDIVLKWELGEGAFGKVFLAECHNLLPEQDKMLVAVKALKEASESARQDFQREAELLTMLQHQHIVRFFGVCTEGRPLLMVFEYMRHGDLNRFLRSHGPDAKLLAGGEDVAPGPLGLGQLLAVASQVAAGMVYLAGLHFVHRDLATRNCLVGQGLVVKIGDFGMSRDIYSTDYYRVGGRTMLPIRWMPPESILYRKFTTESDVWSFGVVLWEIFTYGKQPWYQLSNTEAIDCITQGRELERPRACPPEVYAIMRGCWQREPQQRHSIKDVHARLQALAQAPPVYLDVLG

| IC50 [nM] | SMILES |
| --- | --- |
| 100 to 500 | O=C(NS(=O)(=O)N1CC[C@H](O)C1)c1cnn2ccc(N3CCC[C@@H]3c3cc(F)ccc3F)cc12 [Example 93, 5-((R)-2-(2,5-difluorophenyl)pyrrolidin-1-yl)-N-(((S)-3-hydroxypyrrolidin-1-yl)sulfonyl)pyrazolo[1,5-a] pyridine-3-carboxamide] |
| 100 to 500 | CC(C)(C)S(=O)(=O)NC(=O)c1cnn2ccc(N3CCC[C@@H]3c3cc(F)cc4c3OCCO4)cc12 [Example 130, Sodium (R)-(tert-butylsulfonyl)(5-(2-(7-fluoro-2,3-dihydrobenzo[b][1,4]dioxin-5-yl)pyrrolidin-1-yl)pyrazolo[1,5-a]pyridine-3-carbonyl)amide] |
| 100 to 500 | CC(C)(C)S(=O)(=O)NC(=O)c1cnn2ccc(N3CC(F)(F)CC3c3cc(F)ccc3F)cc12 (centres unmarked) [Example 133, Sodium (tert-butylsulfonyl)(5-(2-(2,5-difluorophenyl)-4,4-difluoropyrrolidin-1-yl)pyrazolo[1,5-a]pyridine-3-carbonyl)amide] |

Same assay, conditions: 5 ng TrkA, 500 μM ATP, read-out: TrkA inhibition in-vitro IC50

| IC50 [nM] | SMILES |
| --- | --- |
| ≤ 50 | CCN(CC)S(=O)(=O)NC(=O)c1cnn2ccc(N3CCC[C@@H]3c3cc(F)ccc3OCCF)cc12 [Example 88, (R)-N-(N,N-diethylsulfamoyl)-5-(2-(5-fluoro-2-(2-fluoroethoxy)phenyl)pyrrolidin-1-yl)pyrazolo[1,5-a]pyridine-3-carboxamide] |
| ≤ 50 | O=C(NS(=O)(=O)N1CCCCC1)c1cnn2ccc(N3CCC[C@@H]3c3cc(F)ccc3F)cc12 [Example 89, (R)-5-(2-(2,5-difluorophenyl)pyrrolidin-1-yl)-N-(piperidin-1-ylsulfonyl)pyrazolo[1,5-a] pyridine-3-carboxamide] |
| ≤ 50 | CCN(C)S(=O)(=O)NC(=O)c1cnn2ccc(N3CCC[C@@H]3c3cc(F)cc(F)c3OC)cc12 [Example 90, (R)-5-(2-(3,5-difluoro-2-methoxyphenyl)pyrrolidin-1-yl)-N-(N-ethyl-N-methylsulfamoyl) pyrazolo[1,5-a]pyridine-3-carboxamide] |
| ≤ 50 | CCN(C)S(=O)(=O)NC(=O)c1cnn2ccc(N3CCC[C@@H]3c3cc(F)cc(F)c3OCCF)cc12 [Example 94, (R)-5-(2-(3,5-difluoro-2-(2-fluoroethoxy)phenyl)pyrrolidin-1-yl)-N-(N-ethyl-N-methylsulfamoyl)pyrazolo[1,5-a]pyridine-3-carboxamide] |
| ≤ 50 | CC(C)(C)S(=O)(=O)NC(=O)c1cnn2ccc(N3C[C@@H](F)C[C@@H]3c3cc(F)ccc3F)cc12 [Example 128, Sodium (tert-butylsulfonyl)(5-((2R,4S)-2-(2,5-difluorophenyl)-4-fluoropyrrolidin-1-yl)pyrazolo[1,5-a]pyridine-3-carbonyl)amide] |
| 50 to 100 | CC1(S(=O)(=O)NC(=O)c2cnn3ccc(N4CCC[C@@H]4c4cc(F)ccc4F)cc23)CC1 [Example 134, Sodium (R)-(5-(2-(2,5-difluorophenyl)pyrrolidin-1-yl)pyrazolo[1,5-a]pyridine-3-carbonyl)((1-methylcyclopropyl)sulfonyl)amide] |
| ≤ 50 | CC(C)(C)S(=O)(=O)NC(=O)c1cnn2ccc(N3C[C@@H](F)C[C@@H]3c3cccc(F)c3)c(F)c12 [Example 137, Sodium (tert-butylsulfonyl)(4-fluoro-5-((2R,4S)-4-fluoro-2-(3-fluorophenyl)pyrrolidin-1-yl)pyrazolo[1,5-a]pyridine-3-carbonyl)amide] |
| ≤ 50 | CN(C)S(=O)(=O)NC(=O)c1cnn2ccc(N3CCC[C@@H]3c3cccc(F)c3)c(F)c12 [Example 138, Sodium (R)-(N,N-dimethylsulfamoyl)(4-fluoro-5-(2-(3-fluorophenyl)pyrrolidin-1-yl)pyrazolo[1,5-a]pyridine-3-carbonyl)amide] |
| ≤ 50 | CCN(C)S(=O)(=O)NC(=O)c1cnn2ccc(N3CCC[C@@H]3c3cc(F)ccc3OC3CCOC3)cc12 (stereo partly drawn) [Example 139, Sodium (N-ethyl-N-methylsulfamoyl)(5-((2R)-2-(5-fluoro-2-((tetrahydrofuran-3-yl)oxy)phenyl)pyrrolidin-1-yl)pyrazolo[1,5-a]pyridine-3-carbonyl)amide] |
| ≤ 50 | Cc1ccccc1S(=O)(=O)NC(=O)c1cnn2ccc(N3CCC[C@@H]3c3cc(F)ccc3F)cc12 [Example 140, Sodium (R)-(5-(2-(2,5-difluorophenyl)pyrrolidin-1-yl)pyrazolo[1,5-a]pyridine-3-carbonyl)(o-tolylsulfonyl)amide] |
| ≤ 50 | CC(C)S(=O)(=O)NC(=O)c1cnn2ccc(N3C[C@@H](F)C[C@@H]3c3cccc(F)c3)c(F)c12 [Example 141, Sodium (4-fluoro-5-((2R,4S)-4-fluoro-2-(3-fluorophenyl)pyrrolidin-1-yl)pyrazolo[1,5-a]pyridine-3-carbonyl) (isopropylsulfonyl)amide] |

Same assay, conditions: 5 ng TrkA, 500 μM ATP, read-out: TrkA inhibitory activity in-vitro IC50

| IC50 [nM] | SMILES |
| --- | --- |
| 1000 to 10000 | CC(C)(C)S(=O)(=O)NC(=O)c1cnn2ccc(N3CC(F)C[C@@H]3c3cc(F)ccc3F)cc12 (stereo partly drawn) [Example 135, Sodium (tert-butylsulfonyl)(5-((2R)-2-(2,5-difluorophenyl)-4-fluoropyrrolidin-1-yl)pyrazolo[1,5-a]pyridine-3-carbonyl)amide] |
